In brackets after ≈: the same amount, converted by molar mass. One block for each compound: values may come before it.
Legend:
Assay in all cases: ≥ marks a high value that may be exact or a test limit, other limits are often not marked, values filed in µg/mL are converted to µM
Bacillus cereus = tested on: Bacillus cereus
[1] = tested on: Batrachochytrium dendrobatidis
Escherichia coli = tested on: Escherichia coli
Leuconostoc lactis = tested on: Leuconostoc lactis
Listeria innocua = tested on: Listeria innocua
Micrococcus luteus = tested on: Micrococcus luteus
Pasteurella multocida = tested on: Pasteurella multocida
Staphylococcus aureus = tested on: Staphylococcus aureus
[2] = tested on: Staphylococcus epidermidis
Streptococcus uberis = tested on: Streptococcus uberis
[3] = tested on: Pseudomonas aeruginosa 15159
[4] = tested on: Pseudomonas aeruginosa ATCC 27853
[5] = tested on: Staphylococcus aureus 2844
[6] = tested on: Staphylococcus aureus ATCC 29213
[7] = tested on: Staphylococcus aureus FDA 486
[8] = tested on: Acinetobacter baumannii ATCC 17978
Bacillus cereus C737 = tested on: Bacillus cereus C737
[9] = tested on: Candida albicans NCPF 3179
[10] = tested on: Enterococcus faecalis NCTC 12201
[11] = tested on: Enterococcus faecalis NCTC 775
[12] = tested on: Escherichia coli NCTC 12923
Escherichia coli UB1005 = tested on: Escherichia coli UB1005
[13] = tested on: Klebsiella pneumoniae NCTC 13368
[14] = tested on: Pseudomonas aeruginosa NCTC 13437
[15] = tested on: Pseudomonas aeruginosa PAO1
Staphylococcus aureus 15 = tested on: Staphylococcus aureus 15
[16] = tested on: Staphylococcus aureus ATCC 9144
[17] = tested on: Bacillus subtilis ATCC 23857
[18] = tested on: Cronobacter sakazakii ATCC 29544
[19] = tested on: Staphylococcus aureus ATCC 25923
[20] = tested on: Staphylococcus epidermidis ATCC 12228
[21] = tested on: Escherichia coli NCTC 10418
[22] = tested on: Staphylococcus aureus NCTC 12981
[23] = tested on: Escherichia coli ATCC 25922
Escherichia coli K88 = tested on: Escherichia coli K88
Escherichia coli K99 = tested on: Escherichia coli K99
[24] = tested on: Lacticaseibacillus rhamnosus 1.0385
[25] = tested on: Lacticaseibacillus rhamnosus 1.0911
[26] = tested on: Lacticaseibacillus rhamnosus 1.0936
[27] = tested on: Lacticaseibacillus rhamnosus 7469
[28] = tested on: Lactiplantibacillus plantarum 8014
[29] = tested on: Salmonella enterica subsp. enterica serovar Pullorum C79-13
[30] = tested on: Salmonella enterica subsp. enterica serovar Typhimurium ATCC 14028
[31] = tested on: Salmonella enterica subsp. enterica serovar Typhimurium C77-31
[32] = tested on: Staphylococcus aureus ATCC 43300
[33] = tested on: Acinetobacter baumannii ATCC 19606
[34] = tested on: Candida krusei ATCC 20029
[35] = tested on: Cryptococcus gattii ATCC 32608
[36] = tested on: Cryptococcus neoformans ATCC 24067
[37] = tested on: Staphylococcus aureus ATCC 33591

SMILES: CC(=O)N[C@@H](CCC(=O)O)C(=O)N[C@@H](Cc1c[nH]c2ccccc12)C(=O)N[C@@H](CCCCN)C(=O)N[C@@H](CCCN=C(N)N)C(=O)N[C@@H](Cc1c[nH]c2ccccc12)C(=O)N[C@H](C(=O)N[C@@H](CCC(N)=O)C(=O)N[C@@H](CCCN=C(N)N)C(=O)N[C@@H](Cc1c[nH]c2ccccc12)C(=O)N[C@@H](CCCCN)C(=O)N[C@@H](CC(=O)O)C(=O)N[C@@H](Cc1c[nH]c2ccccc12)C(=O)N[C@@H](CC(C)C)C(=O)N[C@@H](CCCN=C(N)N)C(=O)N[C@@H](CC(N)=O)C(=O)N[C@@H](CC(C)C)C(=O)N[C@H](C(N)=O)C(C)C)C(C)C [EWKRWVQRWKDWLRNLV]
MIC [3]: 10 µM (≈ 24.4 µg/mL)
MIC [4]: 10 µM (≈ 24.4 µg/mL)
MIC [5]: 5 µM (≈ 12.2 µg/mL)
MIC [6]: 10 µM (≈ 24.4 µg/mL)
MIC [7]: 5 µM (≈ 12.2 µg/mL)

SMILES: CC[C@H](C)[C@H](N)C(=O)N[C@@H](CC(C)C)C(=O)NCC(=O)N[C@H](C(=O)N[C@H](C(=O)N[C@@H](CC(C)C)C(=O)NCC(=O)N[C@@H](CC(C)C)C(=O)N[C@@H](CC(C)C)C(=O)N[C@@H](CCCCN)C(=O)N[C@@H](Cc1ccccc1)C(=O)N[C@@H](CC(C)C)C(N)=O)[C@@H](C)CC)[C@@H](C)O [ILGTILGLLKFL]
MIC [17]: 4 µM (≈ 5.2 µg/mL)
MIC [18]: ≥ 256 µM
MIC [19]: 4 µM (≈ 5.2 µg/mL)
MIC [6]: 4 µM (≈ 5.2 µg/mL)
MIC [20]: 2 µM (≈ 2.6 µg/mL)

SMILES: NCCCC[C@H](NC(=O)[C@H](Cc1ccccc1)NC(=O)[C@H](CCCCN)NC(=O)[C@@H](N)Cc1ccccc1)C(=O)N[C@@H](Cc1ccccc1)C(N)=O [FKFKF]
MIC [21]: ≥ 179 µM
MIC [22]: ≥ 179 µM

SMILES: CC(C)C[C@H](NC(=O)[C@H](CC(C)C)NC(=O)[C@H](Cc1c[nH]c2ccccc12)NC(=O)[C@H](Cc1c[nH]c2ccccc12)NC(=O)[C@H](Cc1c[nH]c2ccccc12)NC(=O)[C@H](CCCN=C(N)N)NC(=O)[C@H](CS)NC(=O)[C@H](Cc1ccccc1)NC(=O)[C@H](Cc1ccc(O)cc1)NC(=O)[C@H](CO)NC(=O)[C@H](C)NC(=O)[C@@H](N)CS)C(N)=O [CASYFCRWWWLL]
MIC [23]: > 64 µM
MIC (Escherichia coli K88): ≥ 64 µM
MIC (Escherichia coli K99): ≥ 64 µM
MIC (Escherichia coli UB1005): ≥ 64 µM
MIC [24]: ≥ 64 µM
MIC [25]: ≥ 64 µM
MIC [26]: ≥ 64 µM
MIC [27]: ≥ 64 µM
MIC [28]: ≥ 64 µM
MIC [4]: > 64 µM
MIC [29]: ≥ 64 µM
MIC [30]: > 64 µM
MIC [31]: ≥ 64 µM
MIC [19]: > 64 µM
MIC [6]: > 64 µM
MIC [32]: > 64 µM

Further lines, results first:

MIC (Bacillus cereus): 30.9 µM (≈ 50 µg/mL)
MIC [1]: ≥ 200 µM
MIC (Escherichia coli): > 61.9 µM
MIC (Leuconostoc lactis): 3.71 µM (≈ 6 µg/mL)
MIC (Listeria innocua): 3.71 µM (≈ 6 µg/mL)
MIC (Micrococcus luteus): ≥ 61.9 µM
MIC (Pasteurella multocida): ≥ 61.9 µM
MIC (Staphylococcus aureus): > 61.9 µM
MIC [2]: 30.9 µM (≈ 50 µg/mL)
MIC (Streptococcus uberis): ≥ 61.9 µM
SMILES: CC[C@H](C)[C@H](NC(=O)[C@H](CC(=O)O)NC(=O)[C@H](CC(C)C)NC(=O)[C@H](CC(C)C)NC(=O)CN)C(=O)N[C@H](C(=O)N[C@@H](CCCCN)C(=O)N[C@@H](CCCCN)C(=O)N[C@H](C(=O)N[C@H](C(=O)NCC(=O)N[C@@H](C)C(=O)N[C@@H](Cc1ccccc1)C(=O)NCC(=O)N[C@@H](CO)C(=O)N[C@@H](CC(C)C)C(N)=O)C(C)C)C(C)C)C(C)C [GLLDIVKKVVGAFGSL]

MIC [8]: 4.85 µM (≈ 8 µg/mL)
MIC (Bacillus cereus C737): ≥ 77.6 µM
MIC (Bacillus cereus): 30.3 µM (≈ 50 µg/mL)
MIC [9]: 9.7 µM (≈ 16 µg/mL)
MIC [10]: ≥ 38.8 µM
MIC [11]: 27.4 µM (≈ 45.2 µg/mL)
MIC [12]: 9.7 µM (≈ 16 µg/mL)
MIC (Escherichia coli UB1005): ≥ 38.8 µM
MIC (Escherichia coli): > 60.6 µM
MIC [13]: ≥ 38.8 µM
MIC (Leuconostoc lactis): 7.27 µM (≈ 12 µg/mL)
MIC (Listeria innocua): 30.3 µM (≈ 50 µg/mL)
MIC (Micrococcus luteus): ≥ 60.6 µM
MIC (Pasteurella multocida): ≥ 60.6 µM
MIC [14]: ≥ 77.6 µM
MIC [15]: > 77.6 µM
MIC (Staphylococcus aureus 15): 19.4 µM (≈ 32 µg/mL)
MIC [16]: 4.85 µM (≈ 8 µg/mL)
MIC (Staphylococcus aureus): 30.3 µM (≈ 50 µg/mL)
MIC [2]: ≥ 60.6 µM
MIC (Streptococcus uberis): ≥ 60.6 µM
SMILES: CC[C@H](C)[C@H](NC(=O)[C@H](CC(=O)O)NC(=O)[C@H](Cc1ccccc1)NC(=O)[C@H](CC(C)C)NC(=O)CN)C(=O)N[C@H](C(=O)N[C@@H](CCCCN)C(=O)N[C@@H](CCCCN)C(=O)N[C@H](C(=O)N[C@H](C(=O)NCC(=O)N[C@@H](C)C(=O)N[C@@H](Cc1ccccc1)C(=O)NCC(=O)N[C@@H](CO)C(=O)N[C@@H](CC(C)C)C(N)=O)C(C)C)C(C)C)C(C)C [GLFDIVKKVVGAFGSL]

MIC [33]: 2.68 µM (≈ 5.02 µg/mL)
MIC [34]: 30.5 µM (≈ 57 µg/mL)
MIC [35]: 3.38 µM (≈ 6.33 µg/mL)
MIC [36]: 8.55 µM (≈ 16 µg/mL)
MIC [23]: 3.01 µM (≈ 5.63 µg/mL)
MIC [4]: 24.2 µM (≈ 45.2 µg/mL)
MIC [37]: 4.27 µM (≈ 7.99 µg/mL)
MIC [20]: 2.13 µM (≈ 3.99 µg/mL)
SMILES: CC[C@H](C)[C@H](NC(C)=O)C(=O)N[C@@H](Cc1c[nH]c2ccccc12)C(=O)N[C@@H](CC(C)C)C(=O)N[C@H](C(=O)N[C@@H](CCCCN)C(=O)N[C@@H](C)C(=O)N[C@@H](CC(C)C)C(=O)N[C@@H](CCCCN)C(=O)N[C@@H](Cc1ccccc1)C(=O)N[C@@H](CC(C)C)C(=O)NCC(=O)N[C@@H](CCCCN)C(=O)N[C@@H](CC(N)=O)C(=O)N[C@@H](CC(C)C)C(=O)NCC(=O)N[C@@H](CCCCN)C(N)=O)[C@@H](C)O [IWLTKALKFLGKNLGK]
